The numbers were not newly measured in paper PMC10386414 (Molecules, 2023), which cites them from elsewhere.

As a reminder, the EC50 is the concentration needed to bring the measured effect to its halfway point.

The structures appear in SMILES notation.

On the set-up of data set [1]: method as in PMID 37381112. Particulars: depending on the animal species used and the pain stimulus.
For data set [2], the system named is MOR. Set-up: method as in PMID 33479684. The settings on record: cAMP assay, acted as a partial agonist. (In general: Cyclic AMP is a second messenger, typically raised through Gs and lowered through Gi signalling.)
On the set-up of data set [3]: method as in PMID 37381112. Particulars: in vivo.
In data set [4] the test system is MOR. Set-up: method as in PMID 17625813. The settings on record: receptor binding assay.
The conditions of data set [5]: earlier work, reference not given.

For `CCC[C@H]1[C@@H]2CCC[C@@]1(c1cccc(O)c1)CCN2CCc1ccccc1` [compound 16], the antinociceptive activity entry in data set [1] is listed as “some antinociceptive activity”. In addition, the “%Emax (efficacy)” value in the data set with MOR [2] is given as 45%. Besides, the concentration giving a half-maximal response (EC50) in the data set on MOR [2] (read-out: EC50 (potency)) was 1.42 nM. Also, the locomotor effects result in data set [3] is given as “unlike morphine in its locomotor effects”.

With `Oc1cccc(C23CCCC(C2O)N(CCc2ccccc2)CC3)c1` [1R,5R,9S-OH compound], the MOR affinity result in the data set with MOR [4] is listed as “sub-nanomolar”. For the same compound, in data set [5], the “potency in vivo relative to morphine” value is “about 500 times”.
